This series is described as follows: Particle size measurement by dynamic light scattering. It is filed as physicochemical. Particulars: steps (a) to (e) without palmitoyl-L-carnitine chloride. On the procedure: The particle size of particles contained in the nonaqueous composition for external use on the skin immediately after preparation was measured by the dynamic light scattering method.
Specifically, the measurement was performed on the number mode using a nanoparticle analysis system (Zetasizer Nano ZSP model manufactured by Malvern Instruments Ltd.).

As to sucrose erucic acid ester, the “Particle size of composition containing particles of the surfactant alone” value was “about 2.5 nm”.

Source of the values: US20210361539A1, “NONAQUEOUS COMPOSITION FOR EXTERNAL USE ON SKIN AND METHOD FOR PRODUCING THE SAME” (CHANEL PARFUMS BEAUTE, priority 2017, published 2021).
